Calls of active or inactive are those of the source. The rule behind the calls is not given here.

As usually defined, the IC50 is the concentration needed to halve the response being measured.

For data set [1], the system named is Anthrax toxin receptor 2 (Homo sapiens), P58335 [R40C]. Put plainly: (§1) Inhibition of AF546-tagged CMG2 R40C mutant binding to AF488-tagged PA E733C mutant incubated for 1 to 3 hrs prior to AF488-tagged PA E733C addition measured after 3 to 4 hrs by FRET assay.
Data set [2] is described as follows: Antiproliferative activity against human HMVEC at 52 uM after 24 to 72 hrs by Cyquant-based fluorimetry relative to control.
Data set [3] in a line: Antiangiogenic activity against human HMVEC at 52 uM after 4 hrs by Diff-Quick staining relative to control. It counts as functional.
Data set [4] is described as follows: Antiproliferative activity against human HMVEC at 156 uM after 24 to 72 hrs by Cyquant-based fluorimetry relative to control.
Data set [5] is described as follows: Antiangiogenic activity against human HMVEC at 156 uM after 4 hrs by Diff-Quick staining relative to control. It counts as functional.
For a further data set, the target named is Anthrax toxin receptor 2 (Homo sapiens, UniProt P58335, R40C). The description is as §1.
Anthrax toxin receptor 2, sequence (P58335 whole entry R40C): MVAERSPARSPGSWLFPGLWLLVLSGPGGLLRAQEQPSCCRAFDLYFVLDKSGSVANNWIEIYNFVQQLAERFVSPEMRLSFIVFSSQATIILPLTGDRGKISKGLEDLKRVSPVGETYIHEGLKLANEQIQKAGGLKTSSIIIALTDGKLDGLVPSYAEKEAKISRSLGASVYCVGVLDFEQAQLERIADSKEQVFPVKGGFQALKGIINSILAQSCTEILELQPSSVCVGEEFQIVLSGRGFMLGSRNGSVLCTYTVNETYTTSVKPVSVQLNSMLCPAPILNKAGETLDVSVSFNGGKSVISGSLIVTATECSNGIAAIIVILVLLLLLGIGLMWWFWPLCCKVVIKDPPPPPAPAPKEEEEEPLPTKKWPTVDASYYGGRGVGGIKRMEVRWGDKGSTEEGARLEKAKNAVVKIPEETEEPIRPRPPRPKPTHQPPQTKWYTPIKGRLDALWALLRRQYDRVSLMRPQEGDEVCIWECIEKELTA
The subject of data set [6] is HMVEC. In words: Antiangiogenic activity against human HMVEC at 39 uM after 4 hrs by Diff-Quick staining relative to control. It counts as functional.
Data set [7] in a line: Antiproliferative activity against human HMVEC at 39 uM after 24 to 72 hrs by Cyquant-based fluorimetry relative to control.
Data set [8] concerns HMVEC. Put plainly: Antiangiogenic activity against human HMVEC at 117 uM after 4 hrs by Diff-Quick staining relative to control. It counts as functional.
Data set [9] in a line: Antiproliferative activity against human HMVEC at 117 uM after 24 to 72 hrs by Cyquant-based fluorimetry relative to control.

Anthrax toxin receptor 2 (Homo sapiens), P58335 [R40C], sequence (P58335 whole entry R40C): as above

With `COc1cccc2c1c(OC)cc1cc(C)c(=O)oc12`, the inhibition entry in [1] was “inactive”.
In the case of `Cc1cc2cc(O)cc(O)c2c(=O)o1`, the Activity entry in data set [2] is given as “Non-toxic”; in data set [3], 96%; in data set [4] it was “Non-toxic”; in [5] it was 93.1%.
With `COc1cccc2c1c(O)cc1cc(C)c(=O)oc12`, the concentration for half-maximal inhibition (IC50) at Anthrax toxin receptor 2 is 500 nM. For the same compound, the outcome in the data set on HMVEC [6] and with HMVEC [8] was inactive. The Activity entry in [7] and in data set [9] was “Toxic” each time.

The values above are taken from ChEMBL document CHEMBL2069275, “Phenolic compounds as antiangiogenic CMG2 inhibitors from Costa Rican endophytic fungi” (Bioorg Med Chem Lett, 2012).
